Measured values from patent publication US7622266B2, “Identification of a synthetic ligand for retinoic acid receptor beta” (Institut Pasteur, priority 1987, dated 2009).
Numbered stars: 1 amine (or outer) side, 2 acyl side, 3 side chain; on linkers, the order of the positions; unused ones are H or OH. Bridge positions count the residues as written; N and C are the ends. Square brackets hold non-standard residues; d marks the D form. Peptide text beside a SMILES is read from it. I, II: the chains in the order shown. Actinocin(9to1) = Cc1c2oc3c(C)ccc(C(=O)[*:1])c3nc-2c(C(=O)[*:2])c(N)c1=O; NMeV = CN[C@H](C(=O)O)C(C)C; Sar = CNCC(=O)O

What was measured:
[1] = test system: transglutaminase expression in HL60 cells; conditions: read-out: ED 50 of RA-dependent transglutaminase expression; cited from earlier work
[2] = test system: RAR β mRNAs in HEPG2 hepatoma cell-line; experiment: Northern blot of RAR β mRNAs in HEPG2 cells; assay type: cell-based, human
Protocol: (§1) Human tissue samples were obtained from early autopsies and kept at −80° C. prior to extraction. The HEPG 2 and PLC/PRF/5 hepatoma cell-lines were grown in Dulbecco's modified Eagle's medium with 10% fetal calf serum, glutamine, and antibiotics, in 5% CO2.
(§2) The RNA was prepared by the hot phenol procedure (Maniatis et al., 1982). Poly(A)^+ mRNA was prepared by oligo(dT)-cellulose ilchromatography. For Northern-blot analysis, total RNA (30 μg) or poly(A)^+ mRNA (5 μg) was denatured by glyoxal and fractionated on a 1.2% agarose gel (Maniatis et al., 1982). The nucleic acid was transferred to nylon membranes (Amersham) by blotting and attached by UV exposure plus baking.
The two cDNA inserts were subcloned into M13 and used to generate high specific activity (greater than 10^9 c.p.m./μg) single-stranded probes by elongation of a sequencing primer with ^32P labelled dTTP (3000 Ci/mmol) and unlabelled nucleotides by Klenow polymerase. The resulting double-stranded DNA was digested using a unique site in the vector, fractioned on a urea/acrylamide sequencing gel, and the labelled single-stranded insert electroeluted. These probes (5×10^6 cpm/ml) were hybridized to the filters in 7% (w/v) sodium dodecyl sulfate (SDS), 0.5 M NaPO4 pH 6.5, 1 mM ethylenediaminetetraacetate (EDTA), and 1 mg/ml bovine serum albumin (BSA) at 68° C. overnight. […]

[3] = target: T1, hap-ER chimaeric receptor (Homo sapiens, UniProt P10826, A104S/D127T/F149Y/F89A/G110A/H125P/I121D/K118G/K128N/K94Y/M120N/N119H/N129Q/N133D/N138K/Q146R/Q92N/R113K/R126A/R139S/S103W/S95A/T123M/T136R/V131T/V135N/Y142A); experiment: hap-ER chimaera trans-activation of oestrogen-responsive reporter gene (vit-tk-CAT); assay type: cell-based; conditions: RA at physiological concentrations
T1 construct: expressed in transfected cells
T1 sequence (P10826 1-448 isoform P10826-2 F82A/Q85N/K87Y/S88A/S96W/A97S/G103A/R106K/K111G/N112H/M113N/I114D/T116M/H118P/R119A/D120T/K121N/N122Q/V124T/N126D/V128N/T129R/N131K/R132S/Y135A/Q139R/F142Y): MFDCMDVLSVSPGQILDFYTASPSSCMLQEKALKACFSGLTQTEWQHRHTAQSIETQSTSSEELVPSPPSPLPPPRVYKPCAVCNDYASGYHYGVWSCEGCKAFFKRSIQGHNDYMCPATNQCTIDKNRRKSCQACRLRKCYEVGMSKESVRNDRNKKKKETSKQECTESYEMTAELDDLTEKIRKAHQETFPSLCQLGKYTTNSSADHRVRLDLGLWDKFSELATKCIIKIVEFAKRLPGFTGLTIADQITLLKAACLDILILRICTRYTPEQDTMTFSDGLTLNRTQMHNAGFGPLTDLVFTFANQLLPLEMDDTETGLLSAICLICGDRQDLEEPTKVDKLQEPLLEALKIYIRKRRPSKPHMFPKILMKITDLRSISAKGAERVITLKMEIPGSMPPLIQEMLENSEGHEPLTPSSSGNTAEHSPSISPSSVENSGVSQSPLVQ
Protocol: To test the possibility that the hap protein might also be a retinoid receptor, a chimaeric receptor was created by replacing the putative DNA binding domain of hap with that of the human oestrogen receptor (ER). The resulting hap-ER chimaera was then tested for its ability to trans-activate an oestrogen-responsive reporter gene (vit-tk-CAT) in the presence of possible receptor ligands. […] See Nature, 332:850-853 (1988).

[4] = test system: RAR α mRNAs in PLC/PRF/5 cells; experiment: Northern blot of RAR α mRNAs in PLC/PRF/5 cells; assay type: cell-based, human; conditions: RA up to 10^−6 M
Protocol: (§3) More particularly, semi-confluent cells were grown for 6 hr in charcoal stripped medium and retinoic acid was then added to the medium at various concentrations (10^−10 M to 10^−6 M) for 4 hr. Control cells were treated with ethanol (E). Northern-blotting was performed as described in connection with FIG. 9, except that 30 μg of total RNA was used.
(§4) Exposure time was 12 hr for the β probe (FIG. 10B, lower panel) and four days for the α probe (FIG. 10B, upper panel).
(§5) Northern-blotting was carried on using 30 ug of total RNA. […] Exposure times were the same as for the experiments in FIG. 10.
as §1
as §2, with “baking. […]” for “baking.”

RAR β = conditions: cited from earlier work
[5] = test system: RAR β mRNAs in PLC/PRF/5 cells; assay type: cell-based, human
Protocol: as §3, §4, §5, §1, §2
The two cDNA inserts were subcloned into M13 and used to generate high specific activity (greater than 10^9 c.p.m./μg) single-stranded probes by elongation of a sequencing primer with ^32P labelled dTTP (3000 Ci/mmol) and unlabelled nucleotides by Klenow polymerase. The resulting double-stranded DNA was digested using a unique site in the vector, fractioned on a urea/acrylamide sequencing gel, and the labelled single-stranded insert electroeluted. These probes (5×10^6 cpm/ml) were hybridized to the filters in 7% (w/v) sodium dodecyl sulfate (SDS), 0.5 M NaPO4 pH 6.5, 1 mM ethylenediaminetetraacetate (EDTA), and 1 mg/ml bovine serum albumin (BSA) at 68° C. overnight. The filters were washed in 1% SDS, 50 mM NaCl, 1 mM EDTA at 68° C. for 10 min and autoradiographed at −70° C. using Kodak XAR films and intensifying screens. A mouse β actin probe was used to rehybridize the filters and check that all lanes contained equal amounts of RNA.
The relative intensity of hybridization signals in Northern-blotting and run-on experiments was estimated using a Hoefer scanning densitometer and the appropriate computer program.

[6] = test system: nuclear extracts from HeLa cells; experiment: T3 binding positive control with HeLa nuclear extracts
Excerpt: The results were-negative as well when the experiment was repeated with (3H)-retinol, -retinoic acid, and -testosterone, which represent three putative ligands for hap whose receptors have not yet been cloned. Although it cannot excluded that hap may encode a hormone independent transcriptional activator, it is more likely that hap product, i.e. the hap protein, is α receptor for a presently unidentified hormone.

[7] = target: T2, in vitro translated hap polypeptide (Homo sapiens, UniProt P10826); experiment: Hormone-binding assay with in vitro translated hap polypeptide; conditions: reticulocyte lysate; for specific binding of (125I)-labelled thyroid hormone to in vitro translated hap polypeptide: 0° C., filtration; for binding of (3H)-labelled ligand to in vitro translated hap polypeptide: overnight 0° C., Dextran coated charcoal
T2 construct: made in house; host or cells: rabbit reticulocyte lysate (in vitro translation of T7 transcripts of pCOD20)
T2 sequence (P10826 1-448 isoform P10826-2): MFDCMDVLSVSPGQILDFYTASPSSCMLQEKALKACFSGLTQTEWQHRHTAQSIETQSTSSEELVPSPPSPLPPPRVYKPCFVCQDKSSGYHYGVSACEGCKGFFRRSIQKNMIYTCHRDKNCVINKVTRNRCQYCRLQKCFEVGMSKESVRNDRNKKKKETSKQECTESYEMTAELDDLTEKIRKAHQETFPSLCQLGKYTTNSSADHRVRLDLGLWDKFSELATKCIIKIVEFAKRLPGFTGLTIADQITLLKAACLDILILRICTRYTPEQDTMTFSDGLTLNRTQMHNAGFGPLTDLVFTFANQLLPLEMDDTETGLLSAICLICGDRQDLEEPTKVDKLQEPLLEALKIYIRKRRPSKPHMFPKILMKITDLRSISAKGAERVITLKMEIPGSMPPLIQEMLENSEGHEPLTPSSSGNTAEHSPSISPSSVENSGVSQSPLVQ
Excerpt: The ability to express functional receptors in vitro from cloned c-erbA/steroid receptor genes led to the use of an in vitro translation assay to identify a putative hap ligand.
The coding region of hap was cloned into pTZ18 plasmid vector to allow in vitro transcription with the T7 RNA polymerase and subsequent translation in reticulocyte lysates. More particularly, ^35S-methionine-labelled products synthesized using T7 polymerase-catalysed RNA transcripts were separated on a 12% SDS-polyacrylamide gel, which was fluorographed. (DMSO-PPO). The lanes in FIG. 5 are as follows:
pCOD20 and pCOD14 were linearized with HindIII. Capped mRNA was generated using 5 ug of DNA, 5 uM rNTP, 25 mM DTT, 100 U RNAsin (Promega), 50 U T7 Pol (Genofit) in 40 mM Tris pH 8, 8mM MgCl2, 2 mM spermidine, 50 mM NaCl, in 100 ul at 37° C. Capping was performed by omitting GTP and adding CAP (m^7 G (5′) ppp (5′) G) (Pharmacia) for the 15 first minutes of the reaction.
After at least 2 h of incubation at 0° C., free was separated from bound by filtration through millipore HAWP 02500 filters using 10 ml of ice cold buffer. For testosterone, retinol, retinoic acid 10 ul of lysate were added to 45 lambda of 20 mM Tris pH 7.3, 1 mM EDTA, 50 mM NaCl, 2 mM beta-mercaptoethanol and […], […] or […] (81 ci/mmol; 60 Ci/mmol; 46 Ci/mmol; Amersham). After an overnight incubation at 0° C. free was separated from bound by Dextran coated charcoal (0.5% Norit A−0.05% T70) and centrifugation. All experiments were performed in duplicates and parallel experiments were performed with 100 fold excess corresponding cold hormone.

For `CC1=C(/C=C/C(C)=C/C=C/C(C)=C/C(=O)O)C(C)(C)CCC1` [RA, All-trans-retinoic acid], the EC50 [1] is given as 50 nM, the “RA-induced stimulation of the levels of RAR β mRNAs” value [2] is given as 50 fold and the “inducing the expression of the reporter gene by the hap-ER chimaeric receptor” value [3] is given as “effective”. The “effect on the level of RAR α mRNAs” value [4] was “no effect”, the “RA concentration for activation of transcription by RAR-β lower than for RAR α” value (RAR β; RAR-β versus RAR α) was […] and the EC50 (RAR β; read-out: ED 50 of RA-dependent gene transactivation, RAR β) was […]. For the same compound, the “latency of induction of RAR β mRNAs” value ([5]; RA 10^−6 M) was “one”, the “time after which induction of RAR β mRNAs is complete” value ([5]; RA 10^−6 M) was “four” and the “magnitude of the RA-induced upregulation of RAR β mRNAs” value ([5]; densitometry of Northern blot, 4 hr) was 10 fold. For the same compound, the “RA concentration at which stimulatory effect on RAR β mRNAs is already evident” value ([5]; dose-response 10^−10 M to 10^−6 M, 4 hr) was […].
For `N[C@@H](Cc1cc(I)c(Oc2ccc(O)c(I)c2)c(I)c1)C(=O)O` [T3, triiodothyronine], the “binding to nuclear extracts from HeLa cells” value [6] was “detected”.
For `N[C@@H](Cc1cc(I)c(Oc2cc(I)c(O)c(I)c2)c(I)c1)C(=O)O` [T4, thyroxine], the “specific binding of (125I)-labelled thyroid hormone to in vitro translated hap polypeptide” value [7] was “No specific fixation”.
In the case of `Cc1c2oc3c(C)ccc(C(=O)N[C@@H]4C(=O)N[C@H](C(C)C)C(=O)N5CCC[C@H]5C(=O)N(C)CC(=O)N(C)[C@@H](C(C)C)C(=O)O[C@@H]4C)c3nc-2c(C(=O)N[C@@H]2C(=O)N[C@H](C(C)C)C(=O)N3CCC[C@H]3C(=O)N(C)CC(=O)N(C)[C@@H](C(C)C)C(=O)O[C@@H]2C)c(N)c1=O` [actinomycin D] (I: T[dV]P[Sar][NMeV] / II: T[dV]P[Sar][NMeV]; ester I:1-I:C, II:1-II:C; linker I:N-II:N via Actinocin(9to1)), the “effect of inhibitor on the RA-induced increase in the levels of RAR β transcripts” value ([5]; RA 10^−6M, CH 10 μg/ml or AC 5 μg/ml, 4 hr) is reported as “abolished”.
For `CC1=C(/C=C/C(C)=C/C=C/C(C)=C/CO)C(C)(C)CCC1` [retinol], the “binding of (3H)-labelled ligand to in vitro translated hap polypeptide” value [7] was “negative”.
With `N[C@@H](Cc1ccc(Oc2cc(I)c(O)c(I)c2)c(I)c1)C(=O)O` [reverse T3, 3,3′, 5′-triiodo-thyronine] the “specific binding of (125I)-labelled thyroid hormone to in vitro translated hap polypeptide” value [7] was “No specific fixation”.
For `C[C@]12CC[C@H]3[C@@H](CCC4=CC(=O)CC[C@@]43C)[C@@H]1CC[C@@H]2O` [testosterone], the “binding of (3H)-labelled ligand to in vitro translated hap polypeptide” value [7] was “negative”.
